According to patent US20240293336A1, “PERCUTANEOUS ABSORPTION FORMULATION FOR TREATING SLEEP DISORDERS” (SINSIN PHARM CO., LTD., priority 2016, published 2024):

Key:
[1] = Observation of crystal formation in the patch; assay type: physicochemical
Description: (§1) 10 wt % melatonin was placed in a 70 mL vial and dissolved in methanol, and then 90 wt % adhesive was added thereto, followed by mixing in a roll mixer for 2 hours. Next, the mixture was allowed to stand for 30 minutes to remove bubbles, after which a silicone-treated polyethylene terephthalate release film was placed on a coating machine, and the mixed adhesive was dried, and then coated onto the release film to 70 μm. Thereafter, the resultant was dried in an oven at 80° C. for 3 minutes, and then a supporting layer film was laminated thereon and compressed using a roller press. The resultant was cut of a patch cutter, thereby manufacturing a patch having an area of 10 cm^2. Next, the physical properties of the patch and crystal formation were observed, and a percutaneous absorption test was performed.
as §1, with “Melatonin and a solubilizing agent were placed” for “10 wt % melatonin was placed”, “then an” for “then 90 wt %”, “coated on” for “coated onto”, “a support” for “a supporting”, “cut by using” for “cut of”, “were observed.” for “were observed, and a percutaneous absorption test was performed.”
A crystallization inhibitor was placed and dissolved in a 70 mL vial, and then a solubilizing agent, an antioxidant and melatonin were added and dissolved, after which an adhesive was added thereto, followed by mixing in a roll mixer for 2 hours. Next, the mixture was allowed to stand for 30 minutes to remove bubbles, after which a silicone-treated polyethylene terephthalate release film was placed on a coating machine, and the mixed adhesive was dried, and then coated on the release film to 70 μm. Thereafter, the resultant was dried in an oven at 80° C. for 3 minutes, and then a support layer film was laminated thereon and compressed using a roller press. The resultant was cut by using a patch cutter, thereby manufacturing a patch having an area of 10 cm^2. Next, the physical properties of the patch and crystal formation were observed.
A crystallization inhibitor was placed and dissolved in a 70 mL vial, and then a solubilizing agent, an antioxidant, a percutaneous absorption enhancer and melatonin were added thereto and dissolved, after which an adhesive was added thereto, followed by mixing in a roll mixer for 2 hours. […]

[2] = melatonin administered orally; cited from earlier work

| SMILES | Crystal formation (after 1 month) (microscopic observation) [1] | crystal formation in visual observation [1] | bioavailability [2] | half-life [2] |
| --- | --- | --- | --- | --- |
| CN1CCCC1=O [N-methyl pyrrolidone] | fine crystal formation | no crystal formation | – | – |
| COc1ccc2[nH]cc(CCNC(C)=O)c2c1 [melatonin] | – | – | 20% | about 1 hour |
| CCOCCOCCO [Transcutol CG, ethoxydiglycol] | fine crystal formation | no crystal formation | – | – |
